Experimental data as given in patent US9278962B2 (Cytokinetics, Inc., priority 2011, dated 2016).

System: rabbit skeletal myofibrils (approximately 90% fast fibers)
Assay: Activation of fast skeletal myofibrils (PUMA coupled-enzyme ATPase assay, AC1.4)
Assay type: biochemical
Conditions: concentration at which the compound increased enzymatic activity by 40%, calcium at pCa25
Description: Rabbit skeletal myofibrils were prepared based upon the method of Herrmann et al. (Biochem. 32(28):7255-7263(1993). Myofibrils were prepared from rabbit psoas muscle purchased from Pel-Freez Biologicals (Arkansas) within 2 days of ordering, stored on ice. Minced muscle was homogenized in 10 volumes of ice-cold “standard” buffer (50 mM Tris, pH 7.4, 0.1 M potassium acetate, 5 mM KCl, 2 mM DTT, 0.2 mM PMSF, 10 μM leupeptin, 5 μM pepstatin, and 0.5 mM sodium azide) containing 5 mM EDTA and 0.5% Triton X-100 using an Omni-Macro homogenizer. Myofibrils were recovered by low speed centrifugation (3000 rpm for 10 minutes) and washed 2 times in the Triton X-100 containing buffer to ensure removal of cellular membrane. Following the Triton washes, myofibrils were washed 3 times in “standard” buffer containing 2 mM magnesium acetate. A final wash in assay buffer (12 mM PIPES, pH 6.8, 60 mM KCl, 1 mM DTT) was performed and brought to 10% sucrose for flash freezing in liquid nitrogen and storage at −80° C.
Fast fiber activators were identified by measuring the enzymatic activity of muscle myofibril preparations using the proprietary PUMA™ (see, e.g., U.S. Pat. Nos. 6,410,254, 6,743,599, 7,202,051, and 7,378,254) assay system. Myofibril preparations consisted of rabbit skeletal muscle (approximately 90% fast fibers) that had been mechanically homogenized and washed with a detergent (triton X-100) to remove cellular membranes. This preparation retained all of the sarcomeric components in a native conformation and the enzymatic activity was still regulated by calcium. Compounds were tested using a myofibril suspension and a level of calcium sufficient to increase enzymatic activity of the myofibrils to 25% of their maximal rate (termed pCa25). Enzymatic activity was tracked via a pyruvate kinase and lactate dehydrogenase-coupled enzyme system. This assay regenerates myosin-produced ADP into ATP by oxidizing NADH, producing an absorbance change at 340 nm. The buffering system was 12 mM Pipes, 2 mM MgCl2, 1 mM DTT at pH 6.8 (PM12 buffer).
Using procedures similar to those described herein, utilizing reagents and intermediates commercially available (e.g., Sigma-Aldrich) or readily synthesized by one of skill in the art, the compounds in Table 2, Table 3, Table 4 and Table 5 were synthesized, characterized and tested. AC1.4 values were determined according to the procedure described in Example 6, and the reported median AC1.4 values are as follows: A=<1 uM; B=1-10 uM; C=10-20 uM; D=>20 uM.

SMILES: Cc1ccc(Br)cc1-c1nnc(NC[C@]2(c3ncccc3F)C[C@@H](F)C2)s1 [5-(5-bromo-2-methylphenyl)-N-(((cis)-3-fluoro-1-(3-fluoropyridin-2-yl)cyclobutyl)methyl)-1,3,4-thiadiazol-2-amine]
- Mean AC1.4 (Table 3): A (A=<1 uM)

SMILES: Cc1nc(NCC2(c3ncccc3F)CCC2)sc1-c1ccccc1 [N-((1-(3-fluoropyridin-2-yl)cyclobutyl)methyl)-4-methyl-5-phenylthiazol-2-amine]
- Mean AC1.4 (Table 5): A (A=<1 uM)

SMILES: CC(C)(CNc1nc(CCC(=O)N2CCCC(O)C2)ns1)c1ccc(F)cc1 (centres unmarked) [3-(5-{[2-(4-fluorophenyl)-2-methylpropyl]amino}(1,2,4-thiadiazol-3-yl))-1-(3-hydroxypiperidyl)propan-1-one]
- Mean AC1.4 (Table 2): D (D=>20 uM)

SMILES: Cn1cc(-c2nnc(NCC3(c4ncccc4F)CCC3)s2)cn1 [N-((1-(3-fluoropyridin-2-yl)cyclobutyl)methyl)-5-(1-methyl-1H-pyrazol-4-yl)-1,3,4-thiadiazol-2-amine]
- Mean AC1.4 (Table 3): D (D=>20 uM)

SMILES: N#Cc1cc(Cl)c2nc(NCC3(c4ncccc4F)CCC3)sc2c1 [4-chloro-2-((1-(3-fluoropyridin-2-yl)cyclobutyl)methylamino)benzo[d] thiazole-6-carbonitrile]
- Mean AC1.4 (Table 4): B (B=1-10 uM)

SMILES: Cc1cc(C#N)sc1-c1nnc(NC[C@]2(c3ncccc3F)C[C@H](F)C2)s1 [5-(5-((3-fluoro-1-(3-fluoropyridin-2-yl)cyclobutyl)methylamino)-1,3,4-thiadiazol-2-yl)-4-methylthiophene-2-carbonitrile]
- Mean AC1.4 (Table 3): B (B=1-10 uM)

SMILES: Fc1cccnc1C1(CNc2cnn(-c3ccccc3)c2)CCC1 [N-((1-(3-fluoropyridin-2-yl)cyclobutyl)methyl)-1-phenyl-1H-pyrazol-4-amine]
- Mean AC1.4 (Table 5): D (D=>20 uM)

SMILES: Fc1cccnc1[C@]1(CNc2nnc(-c3ccc(Br)s3)s2)C[C@@H](F)C1 [5-(5-bromothiophen-2-yl)-N-(((trans)-3-fluoro-1-(3-fluoropyridin-2-yl)cyclobutyl)methyl)-1,3,4-thiadiazol-2-amine]
- Mean AC1.4 (Table 3): B (B=1-10 uM)

SMILES: CNCc1nsc(NCC(C)(C)c2ccc(F)cc2)n1 [[(5-{[2-(4-fluorophenyl)-2-methylpropyl]amino}(1,2,4-thiadiazol-3-yl))methyl]methylamine]
- Mean AC1.4 (Table 2): D (D=>20 uM)

SMILES: Cn1cc(-c2nsc(NCC(C)(C)c3ccc(F)cc3)n2)cn1 [[2-(4-fluorophenyl)-2-methylpropyl][3-(1-methylpyrazol-4-yl)(1,2,4-thiadiazol-5-yl]
- Mean AC1.4 (Table 2): B (B=1-10 uM)

SMILES: CCOC(=O)/C=C/c1nsc(NCC(C)(C)c2ccc(F)cc2)n1 [ethyl (2E)-3-(5-{[2-(4-fluorophenyl)-2-methylpropyl]amino}(1,2,4-thiadiazol-3-yl))prop-2-enoate]
- Mean AC1.4 (Table 2): D (D=>20 uM)

SMILES: Cc1ccc(Cc2nsc(NCCc3cccc(Cl)c3)n2)cc1 [[2-(3-chlorophenyl)ethyl]{3-[(4-methylphenyl)methyl](1,2,4-thiadiazol-5-yl)}amine]
- Mean AC1.4 (Table 2): B (B=1-10 uM)

SMILES: COc1ccc2nc(NCC(C)(C)c3ccc(F)cc3)sc2c1 [N-(2-(4-fluorophenyl)-2-methylpropyl)-6-methoxybenzo[d]thiazol-2-amine]
- Mean AC1.4 (Table 4): A (A=<1 uM)

SMILES: CC(C)(CNc1nc(-c2ccc(F)cc2)ns1)c1ccc(F)cc1 [[3-(4-fluorophenyl)(1,2,4-thiadiazol-5-yl)][2-(4-fluorophenyl)-2-methylpropyl]amine]
- Mean AC1.4 (Table 2): B (B=1-10 uM)

SMILES: COc1cccc(C2(CNc3nc4ccc(C(N)=O)cc4s3)CCC2)n1 [2-((1-(6-methoxypyridin-2-yl)cyclobutyl)methylamino)benzo[d] thiazole-6-carboxamide]
- Mean AC1.4 (Table 4): B (B=1-10 uM)

SMILES: CC(C)(CNc1ncns1)c1ccc(F)cc1 [[2-(4-fluorophenyl)-2-methylpropyl]-1,2,4-thiadiazol-5-ylamine]
- Mean AC1.4 (Table 2): B (B=1-10 uM)

SMILES: Cn1nccc1-c1nnc(NCC2(c3ncccc3F)CCC2)s1 [N-((1-(3-fluoropyridin-2-yl)cyclobutyl)methyl)-5-(1-methyl-1H-pyrazol-5-yl)-1,3,4-thiadiazol-2-amine]
- Mean AC1.4 (Table 3): D (D=>20 uM)

SMILES: CC(C)Cc1nsc(NCC(C)(C)c2ccc(Cl)cc2)n1 [[2-(4-chlorophenyl)-2-methylpropyl][3-(2-methylpropyl)(1,2,4-thiadiazol-5-yl)]amine]
- Mean AC1.4 (Table 2): B (B=1-10 uM)

SMILES: CC(C)(O)CCc1nsc(NCC(C)(C)c2ccc(F)cc2)n1 [4-(5-{[2-(4-fluorophenyl)-2-methylpropyl]amino}(1,2,4-thiadiazol-3-yl))-2-methylbutan-2-ol]
- Mean AC1.4 (Table 2): B (B=1-10 uM)

SMILES: C=Cc1ccc(F)c(-c2nnc(NC[C@]3(c4ncccc4F)C[C@H](F)C3)s2)c1 [N-((3-fluoro-1-(3-fluoropyridin-2-yl)cyclobutyl)methyl)-5-(2-fluoro-5-vinylphenyl)-1,3,4-thiadiazol-2-amine]
- Mean AC1.4 (Table 3): A (A=<1 uM)

SMILES: Fc1cccnc1[C@]1(CNc2nnc(-c3ccccn3)s2)C[C@@H](F)C1 [N-((3-fluoro-1-(3-fluoropyridin-2-yl)cyclobutyl)methyl)-5-(pyridin-2-yl)-1,3,4-thiadiazol-2-amine]
- Mean AC1.4 (Table 3): B (B=1-10 uM)

SMILES: CC(C)(Nc1nnc(-c2cc(C(N)=O)ccc2F)o1)c1ccc(F)cc1 [4-fluoro-3-(5-(2-(4-fluorophenyl)propan-2-ylamino)-1,3,4-oxadiazol-2-yl)benzamide]
- Mean AC1.4 (Table 5): C (C=10-20 uM)

SMILES: COc1cccnc1C1(CNc2nc3ccc(C(N)=O)cc3s2)CCC1 [2-((1-(3-methoxypyridin-2-yl)cyclobutyl)methylamino)benzo[d] thiazole-6-carboxamide]
- Mean AC1.4 (Table 4): B (B=1-10 uM)

SMILES: CC(C)(CNc1nc(-c2ccc(C#N)c(F)c2)ns1)c1ccc(F)cc1 [2-fluoro-4-(5-{[2-(4-fluorophenyl)-2-methylpropyl]amino}(1,2,4-thiadiazol-3-yl))benzenecarbonitrile]
- Mean AC1.4 (Table 2): B (B=1-10 uM)

SMILES: CC(C)(CNc1nc(CN2CCCC(O)C2)ns1)c1ccc(F)cc1 (centres unmarked) [1-[(5-{[2-(4-fluorophenyl)-2-methylpropyl]amino}-1,2,4-thiadiazol-3-yl)methyl]piperidin-3-ol]
- Mean AC1.4 (Table 2): D (D=>20 uM)

SMILES: Fc1cccnc1C1(CNc2nnc(-c3ccc(Br)cc3)s2)CCC1 [5-(4-bromophenyl)-N-((1-(3-fluoropyridin-2-yl)cyclobutyl)methyl)-1,3,4-thiadiazol-2-amine]
- Mean AC1.4 (Table 3): B (B=1-10 uM)

SMILES: CC(C)(C(=O)Nc1nc(-c2ccccc2)ns1)c1ccc(F)cc1 [2-(4-fluorophenyl)-2-methyl-N-(3-phenyl(1,2,4-thiadiazol-5-yl))propanamide]
- Mean AC1.4 (Table 2): D (D=>20 uM)

SMILES: CC(C)(CNc1nc(CN2CCCCC2)ns1)c1ccc(F)cc1 [[2-(4-fluorophenyl)-2-methylpropyl][3-(piperidylmethyl)(1,2,4-thiadiazol-5-yl)]amine]
- Mean AC1.4 (Table 2): D (D=>20 uM)

SMILES: CC(C)(CNc1nc(CNCCCO)ns1)c1ccc(F)cc1 [3-{[(5-{[2-(4-fluorophenyl)-2-methylpropyl]amino}-1,2,4-thiadiazol-3-yl)methyl]amino}propan-1-ol]
- Mean AC1.4 (Table 2): D (D=>20 uM)

SMILES: Nc1ccc(CCNc2nc(Cc3ccc(F)cc3)ns2)cc1 [[2-(4-aminophenyl)ethyl]{3-[(4-fluorophenyl)methyl](1,2,4-thiadiazol-5-yl)}amine]
- Mean AC1.4 (Table 2): D (D=>20 uM)

SMILES: COc1ccc(C2(CNc3nc4ccc(C#N)cc4s3)CCC2)nc1 [2-((1-(5-methoxypyridin-2-yl)cyclobutyl)methylamino)benzo[d] thiazole-6-carbonitrile]
- Mean AC1.4 (Table 4): D (D=>20 uM)

SMILES: N#Cc1cccc(-c2nnc(NC[C@]3(c4ncccc4F)C[C@@H](F)C3)s2)c1 [3-(5-(((cis)3-fluoro-1-(3-fluoropyridin-2-yl)cyclobutyl)methylamino)-1,3,4-thiadiazol-2-yl)benzonitrile]
- Mean AC1.4 (Table 3): B (B=1-10 uM)

SMILES: CN(C)CCNc1nsc(NCC(C)(C)c2ccc(F)cc2)n1 [{2-[(5-{[2-(4-fluorophenyl)-2-methylpropyl]amino}(1,2,4-thiadiazol-3-yl))amino]ethyl}dimethylamine]
- Mean AC1.4 (Table 2): D (D=>20 uM)

SMILES: CC(C)(CNc1nc2cccc(C#N)c2s1)c1ccc(F)cc1 [2-(2-(4-fluorophenyl)-2-methylpropylamino)benzo[d] thiazole-7-carbonitrile]
- Mean AC1.4 (Table 4): B (B=1-10 uM)

SMILES: COc1cccc(Cc2nsc(NCC(C)(C)c3ccc(Cl)cc3)n2)c1 [[2-(4-chlorophenyl)-2-methylpropyl]{3-[(3-methoxyphenyl)methyl](1,2,4-thiadiazol-5-yl)}amine]
- Mean AC1.4 (Table 2): A (A=<1 uM)
